From patent US9180082B2, “Biotin-conjugated hexapeptide-2 derivative and use thereof” (INCOSPHARM CORPORATION, priority 2012, dated 2015)
Where a SMILES comes first, the peptide text is derived from it. [ ]: non-standard residue; d: D form. The star is where a group is joined. ξ: configuration not given here. Biotin = O=C1N[C@H]2[C@H](CS[C@H]2CCCCC(=O)*)N1; ξW = NC(Cc1c[nH]c2ccccc12)C(=O)O; ξH = NC(Cc1c[nH]cn1)C(=O)O; ξF = NC(Cc1ccccc1)C(=O)O; ξK = NCCCCC(N)C(=O)O; ξA = CC(N)C(=O)O

Experiments:
[1] = tested on: type 1 collagen biosynthesis in fibroblasts; test: Type 1 collagen biosynthesis-promoting ability, ELISA of fibroblast culture supernatants; assay type: cell-based; settings: supernatants of human dermal fibroblasts; dilutions of 200 uM, 20 uM and 2 uM, each 100 ul added to 100 ul medium; incubation 48 hours; FIG. 2
Protocol: The type 1 collagen produced was measured by ELISA assay to examine the effect of promoting collagen biosynthesis, and a control group with no sample added was considered as 100% to calculate the relative type 1 collagen production ability.
Thereafter, fibroblast culture supernatants described in Example 2 were treated to the 96-well plate coated with type 1 collagen antibodies, and reacted at room temperature for 2 hours. […] Reaction was stopped using 2 N hydrochloric acid, and absorbance was measured at 450 nm.

[2] = tested on: Human normal fibroblasts (Human Dermal Fibroblast neonatal); test: Cytotoxicity test by MTT assay; assay type: cell-based; settings: dilutions of 200 uM, 20 uM and 2 uM, each 100 ul added to 100 ul medium, incubation 48 hours, FIG. 1
Protocol: In order to examine cytotoxicity of the biotin-conjugated hexapeptide-2 peptide synthesized in Example 1, the following experiment was performed. Cytotoxicity was examined by MTT assay, and a control group with no sample added was considered as 100% to calculate relative cytotoxicity. The detailed experimental method is as follows. Human normal fibroblasts (Human Dermal Fibroblast neonatal) were seeded in a 96-well plate for cell culture at a density of 3,000 cells per well, and cultured in 10% FBS (Fetal bovine serum)-containing DMEM (Dulbecco's Modified Eagle Media, Gibco BRL) in a 37° C., 5% CO2 incubator for 24 hours. Each test material was dissolved in water at a concentration of 10 mM to prepare concentrates, and the concentrates were diluted with 0.5% FBS-containing DMEM at a concentration of 200 uM, 20 uM, and 2 uM. Then, each 100 ul of the diluted solutions was added to each well previously containing 100 ul of the medium, followed by incubation for 48 hours. After completing the cultivation, the supernatants were used to determine the amount of type 1 collagen produced (Example 3), and the cells were used to determine cytotoxicity. […] Thereafter, the supernatant was carefully removed, and MTT formazan precipitates in the cells were dissolved in 100 ul of DMSO to determine absorbance at OD570 using an ELISA reader.

| SMILES | type 1 collagen biosynthesis (ELISA, relative to control group with no sample added = 100%) [1] | cytotoxicity (MTT assay, relative to control group with no sample added = 100%) [2] |
| --- | --- | --- |
| CC(NC(=O)C(Cc1c[nH]c2ccccc12)NC(=O)C(Cc1c[nH]cn1)NC(=O)CCCC[C@@H]1SC[C@@H]2NC(=O)N[C@@H]21)C(=O)NC(Cc1c[nH]c2ccccc12)C(=O)NC(Cc1ccccc1)C(=O)NC(CCCCN)C(N)=O (stereo partly drawn) [biotin-conjugated hexapeptide-2] (Biotin-[ξH][ξW][ξA][ξW][ξF][ξK]-NH2) | significant increase | – |
| O=C(O)CCCC[C@@H]1SC[C@@H]2NC(=O)N[C@@H]21 [biotin] | no increase | – |
| C[C@H](NC(=O)[C@@H](Cc1c[nH]c2ccccc12)NC(=O)[C@@H](N)Cc1c[nH]cn1)C(=O)N[C@@H](Cc1c[nH]c2ccccc12)C(=O)N[C@H](Cc1ccccc1)C(=O)N[C@@H](CCCCN)C(N)=O [hexapeptide-2, His-D-Trp-Ala-Trp-D-Phe-Lys-NH2] (H-H[dW]AW[dF]K-NH2) | – | no cytotoxicity |
